From patent publication US20240122885A1, “Endometriosis-Related Methods and Compositions” (The Regents of the University of California, priority 2021, published 2024) come the findings set out here.

This experiment relates to rat model of endometriosis. Kind of experiment: behavioral assessment of vaginal nociception (escape response) in rat model of endometriosis. Conditions: 30 mg/kg/day p.o.; for Post-Treatment period (PT) median escape response: four weeks of treatment, proestrus. The experiment is classed as in vivo. From the text:
Baseline vaginal nociception was first assessed in rats. Then, endometriosis was induced when rats were four months of age by suturing uterine fragments within the peritoneal cavity to generate ectopic endometrium (lesions). […] In this model, four (2 mm×2 mm) pieces of uterine horn are auto transplanted onto cascading mesenteric arteries within the pelvic cavity of rats that are hormonally and immunologically intact. The present model avoids ovariectomy followed by estradiol supplementation that is common in most mouse models which eliminates the natural estradiol variations within the estrous cycle and the ability to assess drug treatment effects on fertility.
Behavioral assessment of vaginal nociception: Volumes of water (0.01, 0.15, 0.30, 0.40, 0.55, 0.70, 0.80, and 0.90 mL) were delivered via a vaginal balloon to the rat's vaginal canal. When the previously trained rat detects this stimulus as noxious, she will poke her head into a tube to break an infrared (IR) beam. This beam break terminates the stimulus (balloon deflates). During each testing session, eight different distention volumes were delivered randomly three times each ˜60 seconds apart. The maximum latency of 15 seconds is considered to be no response. The experimenter was blinded to the volumes being delivered.
Data analyses of behavioral results: Percent escape responses as a function of distention volume were measured in each session. For each rat, the escape response percentages as a function of distention volume from all sessions for each testing period were determined. The median escape response percentage and interquartile range (IQR) for all rats from each testing period was determined.
Statistical analyses were performed using Mann Whitney U test, and p-values were corrected using the Bonferroni correction method.

Each structure is given as a SMILES string.

As to `CC(C(=O)O)c1cccc(Oc2ccccc2)c1` (stereo not shown) [fenoprofen], the “escape responses between the baseline period and the post-treatment period” value (any volume of water delivered, Mann Whitney U test, Bonferroni-corrected threshold 0.05) is “No statistically significant difference”. For the same compound, the “Post-Treatment period (PT) median escape response” value (volume 0.01 mL) is 0%; the “Post-Treatment period (PT) median escape response” value (volume 0.15 mL) is given as 0%; the “Post-Treatment period (PT) median escape response” value (volume 0.3 mL) amounted to 0%; the “Post-Treatment period (PT) median escape response” value (volume 0.4 mL) came to 16.65%; the “Post-Treatment period (PT) median escape response” value (volume 0.55 mL) was 33.3%; the “Post-Treatment period (PT) median escape response” value (volume 0.7 mL) was 66.6%. Also, the “Post-Treatment period (PT) median escape response” value runs as follows: (volume 0.8 mL) 100%; (volume 0.9 mL) 100%. Besides, the “escape responses during the post-treatment period compared to the post-endo surgery period” value (volumes of 0.15, 0.3, 0.4, 0.55, 0.7 and 0.8 mL, Mann Whitney U test, Bonferroni-corrected threshold 0.05) was “significantly decreased”.
